Consider eight compounds from PMC6953423 (Journal of medicinal chemistry, 2019).

The subject of series [1] is rats. The note with it: cited from earlier work; for seeking drugs of abuse (cocaine or methamphetamine) after a period of extinction: rats pretreated.
For series [2] the following is noted: cited from earlier work.
Series [3] can be described thus: Kinetic solubility. It counts as physicochemical. The following applies: phosphate buffer, mean ± SD.
For series [4], the target named is T1, CB1 (Homo sapiens, UniProt P21554). Briefly: CB1 calcium mobilization assay. Format: cell-based. The following applies: IC50 relative to 2. A general note: A change in cytosolic calcium serves as a functional read-out for many receptors and channels.
Series [5] concerns the target T1, CB1. The note with it: absence of CP55,940; up to 10 μM.
Series [6] deals with P-gp (MDR1). Kind of series: in vitro. The note with it: dog, MDCK-MDR1, pH 7.4.
In series [7] the test system is male Sprague-Dawley rats. Kind of series: Drug-induced reinstatement of extinguished cocaine-seeking behavior. It counts as in vivo, rat. The note with it: 10 mg/kg i.p. pretreatment, cocaine prime 10 mg/kg i.p., p > 0.05.

Bounds are passed on as bounds.

T1 sequence (P21554 whole entry): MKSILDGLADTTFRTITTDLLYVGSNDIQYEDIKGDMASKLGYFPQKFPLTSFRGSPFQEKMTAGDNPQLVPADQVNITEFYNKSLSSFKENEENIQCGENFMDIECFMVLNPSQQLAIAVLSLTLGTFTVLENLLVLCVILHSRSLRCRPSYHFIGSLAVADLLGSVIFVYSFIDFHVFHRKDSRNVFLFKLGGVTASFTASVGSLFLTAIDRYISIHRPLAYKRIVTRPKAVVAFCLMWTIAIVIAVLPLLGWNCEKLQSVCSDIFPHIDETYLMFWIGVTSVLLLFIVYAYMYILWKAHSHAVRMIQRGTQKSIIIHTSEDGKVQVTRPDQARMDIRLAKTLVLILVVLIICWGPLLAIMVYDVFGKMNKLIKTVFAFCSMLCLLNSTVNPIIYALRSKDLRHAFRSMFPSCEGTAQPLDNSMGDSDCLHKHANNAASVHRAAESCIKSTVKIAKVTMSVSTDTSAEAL

In the case of `O=C(Nc1ccc(Cl)cc1)Nc1cccc(-c2ccc(F)cc2)c1` [Compound 4], in series [1], the “prime-induced reinstatement of cocaine seeking” value is given as “attenuated prime-induced restatement of cocaine seeking” and the “seeking drugs of abuse (cocaine or methamphetamine) after a period of extinction” value (“seeking drugs of abuse” below) is recorded as “less likely to seek drugs of abuse”.

Regarding `N#Cc1ccc(NC(=O)Nc2cccc(-c3cccc(N4CCCC4)n3)c2)cc1` [Compound 3], the “effect on THC in drug discrimination” value in series [2] is given as “reduced THC’s potency”.

As usually defined, the solubility is how much of the substance goes into solution per volume. A higher solubility goes with a readily soluble substance. In series [3], `O=C(Nc1ccc(Cl)cc1)Nc1cccc(-c2cccc(N3CCCC3)n2)c1` [Compound 2, 1-(4-chlorophenyl)-3-{3-[6-(pyrrolidin-1-yl)pyridin-2-yl]phenyl}urea] yielded a solubility at 2 h below 1 µM. The “seeking drugs of abuse” value in series [1] is given as “less likely to seek drugs of abuse”.

With `O=C(Nc1ccc(Cl)cc1)Nc1ccnc(-c2ccccc2)c1` [Compound 10, 1‐(4‐Chlorophenyl)‐3‐(2‐phenylpyridin‐4‐yl)urea], the “fold less potent than 2 in calcium assay” value in series [4] is 7.1 fold.

`CCc1c(C(=O)NCCc2ccc(N3CCCCC3)cc2)[nH]c2ccc(Cl)cc12` [Compound 1]: the “seeking drugs of abuse” value in series [1] is recorded as “less likely to seek drugs of abuse”.

With `O=C(Nc1ccc(Cl)cc1)Nc1cc(-c2ccccc2)ccn1` [Compound 7, 1‐(4‐Chlorophenyl)‐3‐(4‐phenylpyridin‐2‐yl)urea], the “fold less potent than 2 in calcium assay” value in series [4] worked out at 4.7 fold.

For orientation: efflux ratio means a quotient of directional permeabilities that is used to spot active efflux. Regarding `O=C(Nc1ccc(Cl)cc1)Nc1ccc(-c2ccccc2)s1` [Compound 11, 1‐(4‐Chlorophenyl)‐3‐(5‐phenylthiophen‐2‐yl)urea], the “inverse agonism (in words)” value in series [5] is “very little inverse agonism”. In addition, in series [6], the efflux ratio at 10 μM was below 2.5. The “effect on drug-induced cocaine-seeking behavior” value in series [7] is listed as “failed to significantly reduce”.

With `O=C(Nc1ccc(Cl)cc1)Nc1cncc(-c2ccccc2)c1` [Compound 9, 1‐(4‐Chlorophenyl)‐3‐(5‐phenylpyridin‐3‐yl)urea], in series [4], the “fold less potent than 2 in calcium assay” value is recorded as 8.8 fold.
